One data set deals with RS4; 11 cells. Briefly: Test 2: inhibition of cell proliferation, RS4; 11. The settings on record: summary of Test 2 (RS4; 11 and MOLM-13). Format: cell-based. The protocol:
(§1) Test for Evaluating the Inhibition of Cell Proliferation RS4; 11 cells were obtained from American Type Culture Collection (ATCC). […] MOLM-13 cells were separately obtained from DSMZ (Deutsche Sammlung von Mikroorganismen und Zeilkulturen GmbH). […] The cells were plated to a 96-well plate in 2000 cells/well, each test compound was added thereto to adjust the final concentration of DMSO to 0.1% of DMSO, and the cells were cultured for 7 days. After the cultivation, the cell viability was calculated with PrestoBlue™ Cell Viability Reagent (Invitrogen, A13261).

The next data set relates to MOLM-13 cells. Put plainly: Test 2: inhibition of cell proliferation, MOLM-13. Format: cell-based. The settings on record: cultured 7 days, PrestoBlue. As for the experimental part: as §1
Data set [1] concerns the target hERG (human Ether-a-go-go Related Gene) (Homo sapiens (Human), UniProt Q12809). Briefly: Test 4: hERG inhibition (QPatch HT). The note with it: for IC50: read-out: hERG inhibition IC50, CHO cell strain stably expressing hERG; for gap between RS4; 11 proliferation IC50 and hERG current IC50: summary of Test 4 table. In general terms: hERG is a cardiac potassium channel; its block is linked to QT prolongation.

Data set [2] addresses Menin-MLL binding (His-Menin1-615, MLL1-172-FLAG) (Homo sapiens (Human), UniProt O00255). Briefly: Test 1: inhibition of the Menin-MLL binding (HTRF). The note with it: summary of Test 1 table. The protocol:
Test 1: Test for Evaluating the Inbinition of the Menin-MLL Binding
After the incubation, the signal was detected with RUBYstar (BMG LABTECH).
On the technique in general: TR-FRET usually uses a lanthanide donor and a delayed reading to cut background.

The test system of data set [3] is MEIS1 mRNA in MV4; 11 cells. Put plainly: Test 3: inhibition of mRNA transcription, MEIS1. Format: cell-based. The settings on record: MEIS1 and HOXA9, MV4, summary of Test 3. As for the experimental part:
Test 3: Test for the Inhibition of mRNA Transcription with Test Compounds
MV4; 11 cells were obtained from American Type Culture Collection (ATCC). […] After the incubation, the total RNA was extracted from the cells with RNeasy™ Mini Kit (QIAGEN, 74106), and cDNA was synthesized with Superscript™ VILO™ cDNA Synthesis Kit (Invitrogen, #11754250). By using TaqMan™ Gene Expression Master Mix (Applied Biosystems, 4369016) and TaqMan™ probe (Applied Biosystems), the expression level of mRNA was quantified from the obtained cDNA with 7900HT (Applied Biosystems). The expression level of each obtained gene (MEIS1 and HOXA9) was fitted with the expression level of mRNA of GAPDH.

“Also recorded” adds a separate entry of the source. Bounds are passed on as bounds.

As a reminder, the IC50 is the point on the concentration scale where inhibition reaches its midpoint.

Sequence of Menin-MLL binding (His-Menin1-615, MLL1-172-FLAG) (O00255 other isoform, or with tags, fused parts or gaps): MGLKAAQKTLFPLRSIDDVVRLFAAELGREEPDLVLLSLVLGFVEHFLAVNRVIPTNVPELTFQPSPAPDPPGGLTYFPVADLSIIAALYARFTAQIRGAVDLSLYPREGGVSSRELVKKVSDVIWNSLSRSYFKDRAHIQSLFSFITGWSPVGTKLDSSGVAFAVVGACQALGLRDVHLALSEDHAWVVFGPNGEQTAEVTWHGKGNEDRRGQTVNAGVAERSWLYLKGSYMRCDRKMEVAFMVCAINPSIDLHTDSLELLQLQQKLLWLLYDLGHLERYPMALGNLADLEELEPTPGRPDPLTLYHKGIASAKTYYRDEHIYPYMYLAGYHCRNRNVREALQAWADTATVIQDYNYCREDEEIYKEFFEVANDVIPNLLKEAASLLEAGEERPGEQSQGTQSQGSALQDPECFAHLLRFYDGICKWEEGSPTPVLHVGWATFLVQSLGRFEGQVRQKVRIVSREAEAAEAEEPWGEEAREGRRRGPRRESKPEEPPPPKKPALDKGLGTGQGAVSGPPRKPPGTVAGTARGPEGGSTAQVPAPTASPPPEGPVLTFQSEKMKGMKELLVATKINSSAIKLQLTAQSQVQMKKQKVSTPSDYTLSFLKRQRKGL
Sequence of hERG (human Ether-a-go-go Related Gene) (Q12809 whole entry): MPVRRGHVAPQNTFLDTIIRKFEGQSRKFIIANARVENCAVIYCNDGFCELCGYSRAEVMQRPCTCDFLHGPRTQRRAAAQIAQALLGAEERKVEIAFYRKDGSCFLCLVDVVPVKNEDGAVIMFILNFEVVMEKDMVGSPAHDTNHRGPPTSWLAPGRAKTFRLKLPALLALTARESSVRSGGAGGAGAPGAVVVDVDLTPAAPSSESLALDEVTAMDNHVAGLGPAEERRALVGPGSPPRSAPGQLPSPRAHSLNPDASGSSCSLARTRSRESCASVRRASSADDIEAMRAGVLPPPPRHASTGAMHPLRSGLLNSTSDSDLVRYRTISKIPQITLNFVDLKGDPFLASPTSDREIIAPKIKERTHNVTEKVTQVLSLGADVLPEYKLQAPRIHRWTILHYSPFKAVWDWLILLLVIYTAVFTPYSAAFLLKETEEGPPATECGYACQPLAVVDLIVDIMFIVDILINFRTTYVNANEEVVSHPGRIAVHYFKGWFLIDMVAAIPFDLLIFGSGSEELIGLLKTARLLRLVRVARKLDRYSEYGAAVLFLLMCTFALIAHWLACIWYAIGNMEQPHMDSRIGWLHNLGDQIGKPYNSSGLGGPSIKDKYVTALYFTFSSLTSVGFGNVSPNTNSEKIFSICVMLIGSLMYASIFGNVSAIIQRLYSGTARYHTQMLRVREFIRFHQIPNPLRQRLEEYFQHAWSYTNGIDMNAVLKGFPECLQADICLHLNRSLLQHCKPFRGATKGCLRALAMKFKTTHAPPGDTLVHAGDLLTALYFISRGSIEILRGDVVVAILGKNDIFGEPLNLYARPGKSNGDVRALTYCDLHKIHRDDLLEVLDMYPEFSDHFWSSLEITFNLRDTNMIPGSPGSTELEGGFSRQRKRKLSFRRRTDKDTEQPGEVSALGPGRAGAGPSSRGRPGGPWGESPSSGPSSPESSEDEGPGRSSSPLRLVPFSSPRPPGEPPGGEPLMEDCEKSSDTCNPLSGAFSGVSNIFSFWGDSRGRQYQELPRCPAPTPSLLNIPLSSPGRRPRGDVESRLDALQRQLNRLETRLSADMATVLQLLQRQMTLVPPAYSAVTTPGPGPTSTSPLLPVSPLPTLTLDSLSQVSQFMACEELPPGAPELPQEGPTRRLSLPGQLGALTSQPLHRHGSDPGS

On to “2-[(4-{7-[(1R,3S,4S)-2-azabicyclo[2.2.1]heptane-3-carbonyl]-2,7-diazaspiro[3.5]nonan-2-yl}pyrimidin-5-yl)oxy]-5-fluoro-N,N-di(propan-2-yl)benzamide [Example 16]”, for which the “cell proliferation inhibition activity (in words)” value in the data set with RS4; 11 cells was “potent”. Moreover, the IC50 with MOLM-13 cells is 40 nM; in data set [1] it was greater than 100000 nM.
Regarding “5-fluoro-2-[(4-{7-[(1S,3S,4R)-5-methylidene-2-azabicyclo[2.2.1]heptane-3-carbonyl]-2,7-diazaspiro[3.5]nonan-2-yl}pyrimidin-5-yl)oxy]-N,N-di(propan-2-yl)benzamide [Example 18]”, the “cell proliferation inhibition activity (in words)” value in the data set on RS4; 11 cells is on record as “potent”. The values for the half-maximal inhibitory concentration (IC50) (with MOLM-13 cells; in data set [1]) were 40 nM and 46100 nM, respectively.
On to `CC(C)N(C(=O)c1cc(F)ccc1Oc1cncnc1N1CC2(CCN(C(=O)[C@H]3N[C@H]4CC[C@@H]3C[C@@H]4CC3CC3)CC2)C1)C(C)C` [Example 1, 2-[(4-{7-[(1S,3S,4R,6S)-6-(Cyclopropylmethyl)-2-azabicyclo[2.2.2]octane-3-carbonyl]-2,7-diazaspiro[3.5]nonan-2-yl}pyrimidin-5-yl)oxy]-5-fluoro-N,N-di(propan-2-yl)benzamide], for which the “cell proliferation inhibition activity (in words)” value in the data set on RS4; 11 cells is recorded as “potent”. Also, the “Menin-MLL binding inhibition activity (in words)” value in data set [2] is listed as “potent”. For the same compound, the “gap between RS4; 11 proliferation IC50 and hERG current IC50” value (“gap between RS4” for short) in data set [1] is “more than 100 fold”. Further, the “mRNA transcription inhibition activity (in words)” value in data set [3] is “showed the mRNA transcription inhibition activity”.
As for `CC(C)N(C(=O)c1cc(F)ccc1Oc1cncnc1N1CC2(CN(C(=O)[C@H]3N[C@H]4CC[C@@H]3C[C@@H]4CC3CC3)C2)C1)C(C)C` [Example 3, 2-[(4-{6-[(1S,3S,4R,6S)-6-(cyclopropylmethyl)-2-azabicyclo[2.2.2]octane-3-carbonyl]-2,6-diazaspiro[3.3]heptan-2-yl}pyrimidin-5-yl)oxy]-5-fluoro-N,N-di(propan-2-yl)benzamide], the “cell proliferation inhibition activity (in words)” value in the data set with RS4; 11 cells was “potent”. Besides, the “Menin-MLL binding inhibition activity (in words)” value in data set [2] is “particularly potent”. Moreover, the “gap between RS4” value in data set [1] is reported as “more than 100 fold”. Also, the “mRNA transcription inhibition activity (in words)” value in data set [3] is given as “showed the mRNA transcription inhibition activity”.
As to `CC(C)N(C(=O)c1cc(F)ccc1Oc1cncnc1N1CC2(CN(C(=O)[C@H]3N[C@H]4CC[C@@H]3[C@@H](F)C4)C2)C1)C(C)C` [Example 10, 5-fluoro-2-[(4-{6-[(1S,3S,4S,5S)-5-fluoro-2-azabicyclo[2.2.2]octane-3-carbonyl]-2,6-diazaspiro[3.3]heptan-2-yl}pyrimidin-5-yl)oxy]-N,N-di(propan-2-yl)benzamide], the “cell proliferation inhibition activity (in words)” value with RS4; 11 cells was “potent”. Further, the “Menin-MLL binding inhibition activity (in words)” value in data set [2] is reported as “particularly potent”. Besides, in data set [1], the “gap between RS4” value is on record as “more than 100 fold”. In addition, the “mRNA transcription inhibition activity (in words)” value in data set [3] is “showed the mRNA transcription inhibition activity”.
For the compound `CC(C)N(C(=O)c1cc(F)ccc1Oc1cncnc1N1CC2(CN(C(=O)[C@H]3N[C@H]4CC[C@@H]3C[C@H]4CC3CC3)C2)C1)C(C)C` [Example 5, 2-[(4-{6-[(1S,3S,4R,6R)-6-(cyclopropylmethyl)-2-azabicyclo[2.2.2]octane-3-carbonyl]-2,6-diazaspiro[3.3]heptan-2-yl}pyrimidin-5-yl)oxy]-5-fluoro-N,N-di(propan-2-yl)benzamide], the “cell proliferation inhibition activity (in words)” value with RS4; 11 cells is “potent; also recorded: excellent”. For the same compound, the “Menin-MLL binding inhibition activity (in words)” value in data set [2] is listed as “potent”. Also, the “gap between RS4” value in data set [1] is given as “more than 100 fold”. Also, the “mRNA transcription inhibition activity (in words)” value in data set [3] is “showed the mRNA transcription inhibition activity”.

The values are drawn from patent US11369605B2, “Optically active azabicyclo ring derivative” (priority 2018, dated 2022).
